# Patent US20220177510A1, “DERIVATIVES OF GYLCERO-MANNO-HEPTOSE ADP FOR USE IN MODULATING IMMUNE RESPONSE” (priority 2019, published 2022)
# Entries after “also recorded” stand apart in the source; their conditions may differ.
# Experiments:
# ALPK1 [1] = target: T1, ALPK1 (Homo sapiens, UniProt Q96QP1); assay: IL-8 secretion by HEK293 cells (IL-8 ELISA) as indication of ALPK1 activation; assay type: cell-based; details: HEK293 cells treated 4 hours, FIG. 6, Table 2A
# T1 construct: endogenous in cells; host or cells: HEK293 (A1); HEK293 stably expressing an NF-kB-alkaline phosphatase reporter (A2)
# Experimental: HEK293 cells were treated with H1b-ADP derivatives (A1, A2, A3, and A4) or with Compound 28 for 4 hours followed by analysis of IL-8 secretion using an IL-8 enzyme linked immunoassay (ELISA). IL-8 secretion is an indication of ALPK1 activation. The EC50 of each compound was determined using GraphPad Prism.
# ALPK1 [2] = target: T1, ALPK1; assay: NF-kB promoter driven alkaline phosphatase reporter in HEK293 cells (pNPP assay); assay type: cell-based; details: HEK293-NFkB-AP reporter cells treated 7 hours
# Experimental: NF-kB activation was assayed using HEK293 cells stably expressing an NF-kB reporter construct comprising an NF-kB promoter driving expression of alkaline phosphatase (AP). In this system, activation of NF-kB promoter activity drives the expression of AP which is detected using a chromogenic substrate, para-nitrophenyl phosphate (pNPP).
# To assess the ALPK1 agonist activity of test compounds, the HEK293 cells were seeded in 96-well plates and allowed to attach overnight. Cells were then exposed to graded concentrations of compounds A1, A2, A3, A4, A18, A26, A27, A28, and A30. Compound 28 was included as a reference. Following treatment, cell culture supernatants were collected and analyzed for alkaline phosphatase activity using the pNPP assay. The results are shown in FIGS. 7A-7B and Table 2B-C below. The EC50 for each compound was determined using GraphPad Prism.
# HBV = assay: HBV-AAV mouse model: HBV DNA qPCR, serum HBsAg and HBeAg ELISA; assay type: in vivo; details: 0.1 mg/kg intraperitoneal on days 28 and 31, serum at day 35, versus PBS control
# Experimental: Administration of Compound 28 (0.1 mg/kg, twice weekly “BIW”) led to downregulation of HBV DNA expression and a decrease in serum levels of HBsAg, and HBeAg in the HBV-AAV mouse model. At day 1, male C57BL/6 mice were intravenously injected with AAV8-1.3HBV (1×10^11 v/g). After days 28 and 31, each mouse was then intraperitoneally injected with 0.1 mg/kg compound 28 or PBS control. At day 35, mouse serum was collected for HBV DNA qPCR analysis, HBsAg and HBeAg serum analysis by ELISA.
# HBsAg, adw = assay: Immunization of mice with HBsAg, adw with or without compound; specific total IgG serum titers by ELISA; assay type: in vivo, mouse
# Experimental: Eight-week-old C57BL/6J mice (females) were intradermally (I.D.) immunized at day 0 with HBsAg, adw (1 mg/dose), or HBsAg, adw at 1 mg/dose combined with compound 28 (1 nmol/dose). Mice were boosted with a second immunization at day 14 and the sera collected at day 35. HBsAg, adw-specific total IgG serum titers (OD450) were determined by ELISA. Anti-HBsAg, adw IgG titers were more than 2× higher when HBsAg, adw was combined with 1 nmol/dose of compound 28 than when HBsAg, adw was injected alone (FIG. 3).
# [3] = tested on: eosinophils, dendritic cells, neutrophils; assay: Porcine pancreas elastase (PPE) induced immune cells in bronchoalveolar lavage, flow cytometry; assay type: in vivo, mouse; details: 30 μg/dose PPE, BAL day 2
# Experimental: Eight-week-old male C57BL/6 mice were grouped (N=8/group) and were intraperitoneally (I.P.) injected with compound 28 at 0, 4, or 20 nmol/dose on days −1, 0, and 1. In addition, mice were intratracheally (I.Tr.) administrated with 0 or 30 μg/dose of porcine pancreas elastase (PPE) dissolved in 50 μL saline on day 0. Mice were sacrificed on day 2 and the immune cells were collected by bronchoalveolar lavage (BAL). Cells were then subjected to fluorophore-conjugated antibody staining and analyzed by flow cytometry. Data were processed with a FlowJo […] (Treestar). Immune cells were gated as singlets>live cells>CD11c^highSiglecF^lowMHCII^high (dendritic cells), CD11c^lowCD11b^highLy-6G^high (neutrophils), and CD11c^lowCD11b^highLy-6G^lowSiglecF^high (eosinophils).
# ALPK1 [4] = target: T2, ALPK1 (Mus musculus, UniProt Q9CXB8); assay: Serum RANTES (CCL5) levels after subcutaneous injection as measure of ALPK1 activation in vivo; details: 10 nmole subcutaneous, serum at 24 hours or 48 hours
# T2 construct: C57/B6 mice (n=3 mice/group) were injected subcutaneously; endogenous in cells; host or cells: C57/B6 mice, whole animal
# T2 sequence (Q9CXB8 1-1231): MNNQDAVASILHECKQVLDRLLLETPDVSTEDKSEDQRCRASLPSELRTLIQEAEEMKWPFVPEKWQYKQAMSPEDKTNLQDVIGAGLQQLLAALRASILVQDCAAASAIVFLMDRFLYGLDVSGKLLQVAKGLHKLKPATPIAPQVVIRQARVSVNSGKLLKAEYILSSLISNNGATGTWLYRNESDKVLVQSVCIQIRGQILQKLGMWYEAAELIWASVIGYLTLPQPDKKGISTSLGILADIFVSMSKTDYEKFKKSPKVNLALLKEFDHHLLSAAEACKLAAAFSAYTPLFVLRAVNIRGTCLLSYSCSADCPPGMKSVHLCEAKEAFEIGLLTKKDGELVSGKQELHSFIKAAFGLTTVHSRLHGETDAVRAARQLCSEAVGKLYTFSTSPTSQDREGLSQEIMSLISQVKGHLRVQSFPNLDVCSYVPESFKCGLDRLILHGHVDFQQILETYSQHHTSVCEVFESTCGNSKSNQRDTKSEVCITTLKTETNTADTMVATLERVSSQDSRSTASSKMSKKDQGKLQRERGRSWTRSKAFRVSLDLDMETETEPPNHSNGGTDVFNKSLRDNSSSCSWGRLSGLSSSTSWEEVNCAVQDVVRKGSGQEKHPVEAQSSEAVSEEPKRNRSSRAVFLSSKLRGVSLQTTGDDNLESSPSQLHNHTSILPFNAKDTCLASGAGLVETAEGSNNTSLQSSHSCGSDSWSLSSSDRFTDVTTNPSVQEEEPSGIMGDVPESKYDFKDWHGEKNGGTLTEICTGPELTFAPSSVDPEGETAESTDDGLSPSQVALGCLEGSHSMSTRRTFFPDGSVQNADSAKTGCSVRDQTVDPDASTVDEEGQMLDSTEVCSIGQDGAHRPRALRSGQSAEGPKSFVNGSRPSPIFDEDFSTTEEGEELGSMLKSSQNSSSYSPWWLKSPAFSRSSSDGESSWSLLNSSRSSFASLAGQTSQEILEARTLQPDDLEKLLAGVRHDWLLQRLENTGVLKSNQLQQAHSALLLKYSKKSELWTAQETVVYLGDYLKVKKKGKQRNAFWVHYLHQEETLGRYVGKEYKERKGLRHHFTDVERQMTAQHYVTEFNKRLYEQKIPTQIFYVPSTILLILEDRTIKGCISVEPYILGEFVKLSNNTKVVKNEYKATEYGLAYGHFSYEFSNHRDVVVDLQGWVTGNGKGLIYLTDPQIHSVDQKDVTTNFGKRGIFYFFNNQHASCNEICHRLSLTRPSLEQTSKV
# Experimental: The ability of Compounds 15 and 28 to stimulate ALPK1 activation in vivo was tested by monitoring serum levels of the chemokine RANTES (CCL5), which is elevated upon activation of ALPK1. Briefly, C57/B6 mice (n=3 mice/group) were injected subcutaneously with PBS (negative control) or 10 nmole of Compound 15 or Compound 28. Serum was collected at 24 hours or 48 hours post injection.
# [5] = 4 nmol/dose intraperitoneal days -1, 0, 1
# [6] = 4 nmol/dose intraperitoneal days -1, 0, 1, listed as compound 28
# [7] = 20 nmol/dose intraperitoneal days -1, 0, 1
# [8] = 20 nmol/dose intraperitoneal days -1, 0, 1, listed as compound 28
# T1 sequence (Q96QP1 whole entry): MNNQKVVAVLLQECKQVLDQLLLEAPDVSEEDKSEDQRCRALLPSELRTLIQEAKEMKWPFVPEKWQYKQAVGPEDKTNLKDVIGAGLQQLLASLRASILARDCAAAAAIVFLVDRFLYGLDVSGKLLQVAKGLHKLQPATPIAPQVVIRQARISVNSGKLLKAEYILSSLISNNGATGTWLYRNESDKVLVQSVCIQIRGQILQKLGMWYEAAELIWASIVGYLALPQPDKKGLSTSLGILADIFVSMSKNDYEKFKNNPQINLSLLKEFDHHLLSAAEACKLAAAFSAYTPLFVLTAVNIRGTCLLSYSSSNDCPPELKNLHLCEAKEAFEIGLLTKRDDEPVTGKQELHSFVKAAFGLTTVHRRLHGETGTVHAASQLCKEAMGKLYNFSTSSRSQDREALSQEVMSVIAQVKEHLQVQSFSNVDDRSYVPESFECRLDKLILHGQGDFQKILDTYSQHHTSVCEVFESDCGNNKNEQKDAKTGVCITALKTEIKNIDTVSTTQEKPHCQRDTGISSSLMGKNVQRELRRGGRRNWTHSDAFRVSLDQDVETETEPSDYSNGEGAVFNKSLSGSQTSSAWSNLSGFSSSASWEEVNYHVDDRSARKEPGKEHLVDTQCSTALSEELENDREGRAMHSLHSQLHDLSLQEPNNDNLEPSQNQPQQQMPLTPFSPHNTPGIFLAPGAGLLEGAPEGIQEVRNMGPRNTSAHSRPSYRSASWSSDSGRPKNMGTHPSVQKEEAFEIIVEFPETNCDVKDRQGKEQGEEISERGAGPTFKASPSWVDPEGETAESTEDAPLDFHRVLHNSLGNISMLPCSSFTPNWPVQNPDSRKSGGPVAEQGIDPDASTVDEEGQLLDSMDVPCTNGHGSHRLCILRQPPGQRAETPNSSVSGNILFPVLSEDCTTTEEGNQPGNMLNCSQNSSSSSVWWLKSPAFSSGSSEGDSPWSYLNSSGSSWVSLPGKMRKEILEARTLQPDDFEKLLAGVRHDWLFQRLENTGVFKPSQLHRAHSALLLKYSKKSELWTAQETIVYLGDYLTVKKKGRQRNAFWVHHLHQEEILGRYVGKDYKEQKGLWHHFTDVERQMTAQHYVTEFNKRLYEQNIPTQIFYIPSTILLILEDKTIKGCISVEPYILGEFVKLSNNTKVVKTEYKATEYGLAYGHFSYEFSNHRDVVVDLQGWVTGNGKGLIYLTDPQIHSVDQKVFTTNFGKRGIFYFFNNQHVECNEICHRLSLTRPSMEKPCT
smiles,measurement,setting,value
CC(=O)OC[C@H](F)C1O[C@@H](OP(=O)(O)OP(O)(=S)OC[C@H]2O[C@@H](n3cnc4c(N)ncnc43)C(O)C2O)C(OC(C)=O)C(OC(C)=O)[C@@H]1OC(C)=O (stereo partly drawn) [Compound 28],EC50,ALPK1 [1],45 nM
same,EC50,"ALPK1 [2]; FIG. 7A, Table 2B",45 nM
same,EC50,"ALPK1 [2]; FIG. 7B, Table 2C",67 nM
same,HBV DNA expression,HBV,marked decrease; also recorded: down-regulation
same,serum levels of HBeAg,HBV,marked decrease; also recorded: lower levels
same,serum levels of HBsAg,HBV,marked decrease; also recorded: lower levels
same,"IgG response against HBsAg, adw (in words)","HBsAg, adw; 1 nmol with HBsAg, adw versus HBsAg, adw alone",increased IgG response
same,"Anti-HBsAg, adw IgG titers, HBsAg, adw combined with compound relative to HBsAg, adw alone","HBsAg, adw; 1 nmol/dose intradermal, days 0 and 14, sera day 35",more than 2 ×
same,production of dendritic cells after PPE administration,[3]; [5],decrease
same,production of eosinophils after PPE administration,[3]; [5],decrease
same,production of neutrophils after PPE administration,[3]; [5],decrease
same,production of dendritic cells after PPE administration,[3]; [6],significantly suppressed
same,production of eosinophils after PPE administration,[3]; [6],significantly suppressed
same,production of neutrophils after PPE administration,[3]; [6],only at the 20 nmol/dose level
same,production of dendritic cells after PPE administration,[3]; [7],decrease
same,production of eosinophils after PPE administration,[3]; [7],decrease
same,production of neutrophils after PPE administration,[3]; [7],decrease
same,production of dendritic cells after PPE administration,[3]; [8],significantly suppressed
same,production of eosinophils after PPE administration,[3]; [8],significantly suppressed
same,production of neutrophils after PPE administration,[3]; [8],suppressed
same,"duration of immune activation (serum RANTES), compared to Compound 15",ALPK1 [4],longer duration of immune activation
